The values that follow come from PubChem BioAssay (NCI).

Structures are written as SMILES. Several values for one entry are separate records, joined by “and”; a condition that tells them apart may be missing. Equal values may be shown once.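 Interpolation was linear, between the two tested concentrations surrounding the appropriate level; five concentrations were tested over 48 hours in 96-well plates. At the GI50, growth is halved. TGI: concentration producing complete growth inhibition.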

Common to all, as to experiment: DTP human tumour cell line panel, 48 h
The test system of experiment [1] is 786-0 renal.
The test system of experiment [2] is HCT-15 colon.
The test system of experiment [3] is HT29 colon.
Experiment [4] has as its system LOX IMVI melanoma.
Experiment [5] relates to NCI-H460 lung.
Experiment [6] concerns PC-3 prostate.
The test system of experiment [7] is SNB-19 CNS.
In experiment [8] the test system is U251 CNS.
The subject of experiment [9] is SK-MEL-28 melanoma.
The subject of experiment [10] is MALME-3M melanoma.

As to `COc1cc2c(c3c1c(=O)c1ccccc1n3C)C=C([N+](=O)[O-])C(C)(C)O2`, the total growth inhibition concentration (TGI) is over 100 µM in [1]; over 100 µM in experiment [2]; over 100 µM in [3]; over 100 µM in experiment [4]; 0.108 µM in [5]; over 100 µM in experiment [6]. For the same molecule, the concentration for total growth inhibition (TGI) in experiment [7] and in [8] was over 100 µM throughout.
For the molecule `CO[C@H]1C(=O)[C@]2(C)[C@@H](OC)C[C@H]3OC[C@@]3(OC(C)=O)[C@H]2[C@H](OC(=O)c2ccccc2)[C@]2(O)C[C@H](OC(=O)[C@H](O)[C@@H](NC(=O)OC(C)(C)C)c3ccccc3)C(C)=C1C2(C)C`, the GI50 in [1], in [2], in experiment [3], in experiment [4], in [5] and in [6] was under 0.01 µM each time. Also, the concentration for 50% growth inhibition (GI50) was under 0.0134 µM in experiment [7] and under 0.01 µM in experiment [8]. For the same molecule, the concentration for total growth inhibition (TGI) was 87.3 µM in experiment [1]; 56 µM in [2]; 11.5 µM in experiment [3]; 49.7 µM in [4]; 13 µM in experiment [5]; over 77.8 µM in [6]. Besides, the figures for the TGI in [9], in [7] and in [8] were 39.8 µM, over 100 µM and 23.8 µM, respectively.
As for `CCN(CC)CCCC(Nc1c2ccc(Cl)cc2nc2ccc(OC)cc12)c1ccc(Cl)cc1` (configuration not stated), the GI50 was 1.29 µM in experiment [1]; 0.404 µM in experiment [2]; 0.45 µM in experiment [3]; 1.88 µM in [10]; 1.33 µM in [5]; 1.55 µM in experiment [6]. Moreover, the GI50 is 1.34 µM in experiment [9] and 0.579 µM in [8]. In addition, the TGI worked out at 2.91 µM in [1]; 1.59 µM in experiment [2]; 1.75 µM in [3]; 3.55 µM in [10]; 2.88 µM in [5]; 3.04 µM in experiment [6]. Moreover, the TGI in [9] was 2.9 µM; in experiment [8], 1.83 µM.
Turning to `Cc1ccccc1Nc1cc(O)c2c(=O)cc(-c3ccccc3)oc2c1`, the GI50 in experiment [1] is 4.42 µM; in experiment [2] it was 0.678 µM; in experiment [3], 3.25 µM; in experiment [4], 2.75 µM; in experiment [10] it was 2.43 µM; in [5] it was 2.89 µM. Also, the figures for the GI50 in experiment [6], in experiment [7] and in [8] were 3.3 µM, 2.98 µM and 3.04 µM, respectively. Also, the total growth inhibition concentration (TGI) in experiment [1], in [2], in experiment [3], in experiment [4], in experiment [10] and in experiment [5] was over 100 µM throughout. Moreover, the concentration for total growth inhibition (TGI) in [6], in experiment [7] and in experiment [8] was over 100 µM throughout.
On to `COc1cc([C@@H]2c3cc4c(cc3[C@H](SC(=N)N)[C@H]3COC(=O)[C@H]23)OCO4)cc(OC)c1OC`, for which the GI50 in experiment [1] was 0.435 µM; in [2], 0.321 µM; in experiment [3], 0.217 µM; in experiment [4], 0.0799 µM; in experiment [5] it was 0.294 µM; in experiment [6] it was 0.381 µM. The values for the GI50 in [9], in [7] and in experiment [8] were 14.4 µM, 0.449 µM and 0.311 µM, respectively. The concentration for total growth inhibition (TGI) in experiment [1] was over 100 µM; in [2], over 100 µM; in experiment [4], over 100 µM; in [5], 56.1 µM; in experiment [6], over 100 µM; in experiment [9], over 100 µM. Besides, the total growth inhibition concentration (TGI) in experiment [7] and in experiment [8] was over 100 µM each time.
With `COc1cccc(-c2cc(=O)c3cc(N4CCN(C)CC4)ccc3[nH]2)c1`, the GI50 in experiment [1] is 5.28 µM; in [2], 2.44 µM; in [3] it was 1.78 µM; in [4] it was 2.11 µM; in experiment [6], 1.55 µM; in [9], 3.99 µM. Besides, the total growth inhibition concentration (TGI) in experiment [1] is over 100 µM; in experiment [3], 5.68 µM and 5.83 µM; in experiment [5], over 100 µM; in [6], over 100 µM; in experiment [9], over 100 µM; in experiment [7], 8.41 µM.
Take `COc1ccc(-c2cnc(-c3ccncc3-c3cccc(OC)c3)o2)cc1`: the GI50 in experiment [1] is 0.0627 µM; in [2], 0.0473 µM; in experiment [3] it was 0.033 µM; in [4], 0.0599 µM; in [5] it was 0.0365 µM; in experiment [6] it was 0.0379 µM. The values for the 50% growth inhibitory concentration (GI50) in experiment [9], in experiment [7] and in [8] were 0.0639 µM, 0.0451 µM and 0.0387 µM, respectively. The total growth inhibition concentration (TGI) was determined as 15 µM in [1]; 14.5 µM in [2]; 10.3 µM in experiment [3]; 15.5 µM in [4]; 4.03 µM in experiment [5]; 16.9 µM in experiment [6]. The TGI in experiment [9] stood at 17.8 µM; in experiment [7], 19.5 µM; in experiment [8] it was 13.4 µM.
As to `O=C(Nc1ccccc1C(=O)NC(=O)c1ccccc1NC(=O)c1ccccc1)c1ccccc1`, the TGI in experiment [1] worked out at 29.3 µM; in experiment [2], 34.3 µM; in experiment [3], 12.7 µM; in [4], 13.9 µM; in experiment [10] it was 12.1 µM; in experiment [5], 28.1 µM. Besides, the total growth inhibition concentration (TGI) in experiment [9] worked out at 10.6 µM; in [7] it was 24.8 µM; in experiment [8] it was 18.8 µM.
As to `CCOC(=O)C1=C(C)N(NC(N)=O)C2(N)N(NC(N)=O)C(C)=C(C(=O)OCC)C12C#N` (configuration not stated), the total growth inhibition concentration (TGI) in experiment [1], in experiment [2], in [3], in experiment [4], in experiment [10] and in experiment [5] was over 100 µM throughout. Besides, the TGI in experiment [9], in experiment [7] and in experiment [8] was over 100 µM throughout.
For the molecule `O=c1[nH]c2ccccc2cc1-c1nnc(Cc2ccccc2)o1`, the GI50 in experiment [1] is 4 µM; in experiment [2], 3.3 µM; in experiment [3], 3.78 µM; in experiment [4], 1.75 µM; in experiment [10], 3.94 µM; in experiment [5], 6.63 µM. Further, the GI50 in experiment [6] is 4.16 µM; in experiment [7], 12.9 µM; in experiment [8], 4.12 µM. The TGI in experiment [1] amounted to 14.6 µM; in [2], 13.5 µM; in experiment [3] it was 12.9 µM; in experiment [4], 4.3 µM; in experiment [10] it was 16.2 µM; in experiment [5], 28.3 µM. The figures for the TGI in experiment [6], in [7] and in [8] were 70.6 µM, 38.1 µM and 14.9 µM, respectively.
As to `O=c1[nH]c(=S)[nH]c(O)c1/C=C1\C=Nc2ccccc21`, the GI50 in experiment [1] is 6.47 µM; in [2] it was 2.78 µM; in experiment [3], 3.37 µM; in [4], 2.46 µM; in experiment [5], 4.07 µM; in [6], 4.88 µM. The GI50 in experiment [9] is 6.69 µM; in [7], 4.53 µM; in [8], 2.11 µM. The concentration for total growth inhibition (TGI) was determined as 22.2 µM in experiment [1]; 8.07 µM in experiment [2]; 10.6 µM in experiment [3]; 11.1 µM in [4]; 18.5 µM in [5]; 73.3 µM in [6]. The total growth inhibition concentration (TGI) in [9] turned out to be 48.3 µM; in [7], 59.3 µM; in [8] it was 5.87 µM.
Consider `CN(C)C1C(=O)C(C(N)=O)=C(O)C2(O)C(=O)C3=C(O)c4c(O)cccc4C(C)(O)C3CC12.[Cl][Sb]([Cl])[Cl]` (configuration not stated), for which the GI50 in [1] was 4.14 µM; in [2], 3.59 µM; in experiment [3], 3.79 µM; in experiment [4], 2.63 µM; in [10], 1.94 µM; in experiment [5] it was 3.27 µM. The results for the GI50 in experiment [6] and in [9] were 3.05 µM and 2.81 µM, respectively. Also, the concentration for total growth inhibition (TGI) came out at 17.6 µM in experiment [1]; 16.1 µM in experiment [2]; 12.2 µM in experiment [3]; 12.3 µM in [4]; 4.6 µM in [10]; 12.3 µM in experiment [5]. Moreover, the results for the TGI in experiment [6] and in experiment [9] were 9.92 µM and 8.57 µM, respectively.
`O=C1C=CC2(CCC23C=CC(=O)O3)O1` (configuration not stated): the TGI in [1], in experiment [2], in experiment [3], in [4], in experiment [10] and in [5] was over 100 µM throughout. In addition, the TGI in [9], in [7] and in [8] was over 100 µM in each case.
`CCOC(=O)C[C@@]12CCCN[C@]1(C)CCc1ccccc12`: the TGI in experiment [1], in [2], in experiment [3], in [4], in experiment [10] and in experiment [5] was over 100 µM throughout. Further, the TGI in experiment [9], in experiment [7] and in experiment [8] was over 100 µM in each case.
Turning to `[O-][n+]1c2cccc(O)c2[n+]([O-])c2cccc(O)c21`, the TGI in experiment [1], in [2], in experiment [3], in [4], in experiment [5] and in experiment [6] was over 100 µM in each case. Moreover, the TGI in [7] and in experiment [8] was over 100 µM each time.
